Experimental data reported in US12116636B2, “Methods for evaluating tumor cell spheroids using 3D microfluidic cell culture device” (Dana-Farber Cancer Institute, Inc., priority 2017, dated 2024).
Read-outs that look alike come from different tables or passages of the source.

Columns and labels:
[1] = system: B16F10 lung metastases; test: B16F10 tail vein injection model, lung metastases; assay type: in vivo, mice; conditions: Compound 1 40 mg/kg daily 13 days ± anti-PD-L1 10 mg/kg
Method: Combination studies were performed by vivoPharm (Hummelstown, PA, USA). All procedures used in the performance of these studies were carried out in accordance with vivoPharm's Standard Operating Procedures, with particular reference to US_SOPvP_EF0314 “General Procedures for Efficacy Studies.” CT26 colon carcinoma cells (1×10^6 cells/mouse in 100 μL, passage 2-3) were re-suspended in serum-free DMEM and implanted in the upper right flank of 11-12 week old female Balb/c mice (Charles River Laboratories). Mice were randomized into four groups of 10 using a matched pair distribution method based on tumor size for CT26. Treatment was initiated 12 days post-inoculation with mean tumor volume at start of dosing of 125.85 mm^3. Vehicle or Compound 1 (40 mg/kg) was administered by oral gavage daily for 26 days and isotype control or a reverse chimera anti-PD-L1 cloned from literature reports (e.g., Deng, R. et al. MAbs (2016), the content of which is incorporated herein by reference in entirety) and placed into a mouse IgG1 framework (10 mg/kg) was administered every 5 days for a total of six doses. Investigators were not blinded to treatment groups. […] Mice were scarified on Day 13 and lung metastases were quantified (small≤1 mm, medium>1 mm and ≤3 mm, large>3 mm). No large lung metastases were detected.

[2] = target: T1, off-target kinases (Homo sapiens, UniProt Q02156); test: SelectScreen Kinase Profiling, biochemical single point inhibition; conditions: ATP Km, ZLYTE
T1 sequence (Q02156 1-737): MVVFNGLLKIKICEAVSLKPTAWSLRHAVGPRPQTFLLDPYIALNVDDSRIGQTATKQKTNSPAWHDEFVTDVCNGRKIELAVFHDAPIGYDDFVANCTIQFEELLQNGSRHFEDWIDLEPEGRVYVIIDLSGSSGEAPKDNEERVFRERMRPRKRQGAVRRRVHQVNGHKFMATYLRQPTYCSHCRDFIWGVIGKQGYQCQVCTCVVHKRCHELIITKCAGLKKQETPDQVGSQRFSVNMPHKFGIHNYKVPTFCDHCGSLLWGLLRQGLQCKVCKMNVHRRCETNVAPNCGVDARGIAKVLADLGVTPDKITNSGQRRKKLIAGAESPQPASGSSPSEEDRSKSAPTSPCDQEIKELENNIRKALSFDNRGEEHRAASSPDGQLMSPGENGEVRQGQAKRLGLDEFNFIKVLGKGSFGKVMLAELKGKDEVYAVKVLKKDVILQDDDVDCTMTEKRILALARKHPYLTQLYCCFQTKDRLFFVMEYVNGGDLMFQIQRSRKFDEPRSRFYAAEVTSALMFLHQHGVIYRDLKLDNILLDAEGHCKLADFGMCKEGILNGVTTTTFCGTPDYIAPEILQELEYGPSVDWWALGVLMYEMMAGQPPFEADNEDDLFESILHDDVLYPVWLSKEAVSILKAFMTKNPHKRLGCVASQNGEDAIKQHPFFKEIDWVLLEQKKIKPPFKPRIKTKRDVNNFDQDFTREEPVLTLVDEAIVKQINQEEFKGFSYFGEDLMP
Method: Biochemical single point inhibition and IC50 concentrations for TBK1, IKKε (IKBKE), and off-target kinases were determined at ThermoFisher Scientific using SelectScreen Kinase Profiling Services (Madison, WI, USA) (Tables S4A and S4B-1-7). To determine cellular potency, the human colorectal cancer carcinoma cell line HCT116 (ATCC, Manassas, VA) was maintained in T175 flasks in complete RPMI medium; RPMI 1640 supplemented with 10% FBS, 1× Penicillin-Streptomycin solution and 1× MEM (non-essential amino acids). HCT116 cells were grown to 90-95% confluency in T175 flasks containing complete RPMI medium and transfected in bulk using Lipofectamine 2000 (Invitrogen, Carlsbad, CA) with 70 μg of ISG54-luciferase reporter plasmid (Elim Biopharmaceuticals Inc., Hayward, CA). The reporter plasmid contains a luciferase gene expression cassette under the transcriptional regulation of the promoter of the human interferon stimulated gene 54 (ISG54). Transfection of the cells was allowed to take place for 6 hours, after which the cells were harvested by treatment with 0.25% trypsin EDTA (Corning Inc., Corning, NY). Trypsinized cells were added to 384-well poly-d-lysine treated black clear bottom tissue culture assay plates (Greiner Bio-One GmbH, Kremsmunster, Austria) at a density of 20,000 cells/well in 80 μL of complete RPMI medium and incubated overnight. After 16-18 hours post-transfection, the assay plates were washed with PBS (Corning Inc., Corning, NY), followed by addition of 80 μL/well of serum-free RPMI 1640 medium containing 1× Penicillin-Streptomycin solution, 1× MEM and 350 nL of DMSO or titrations of Compound 1. Compound 1 titrations were generated by 1.5-fold dilution steps in two overlapping serial dilution series to generate a 40-point compound dose range. After incubation at 37° C. for 1 hour, the cells were stimulated with Poly(I:C) (InvivoGen, San Diego, CA) at a final concentration of 15 μg/mL in Optimem media (Life Technologies, Rockville, MD). The assay plates were incubated for 5 hours at 37° C., followed by addition of One-Glo luciferase firefly reagent (Promega, Madison, WI) at 1:1 volume/well and luminescence was measured in an EnVision Multilabel Plate Reader (PerkinElmer, Santa Clara, CA). The EC50 values were calculated from the fit of the dose-response curves to a four-parameter equation. All EC50 values represent geometric mean values of a minimum of four determinations.

SMILES: N#Cc1cc(-c2ncnc(Nc3ccc(N4CCN(C5COC5)CC4)cc3)n2)ccc1OC1CCOCC1 [Compound 1, 5-(4-((4-(4-(oxetan-3-yl)piperazin-1-yl)phenyl)amino)-1,3,5-triazin-2-yl)-2-((tetrahydro-2H-pyran-4-yl)oxy)benzonitrile]
- sensitization of B16F10 tail vein injection model (lung metastases) [1]: could not be sensitized
- inhibition ([2]; PRKCE (PKC), read-out: % Inhibition 1): 1%
- inhibition ([2]; PRKCE (PKC), read-out: % Inhibition Avg): -3%
- inhibition ([2]; PRKCE PKC, read-out: % Inhibition 2): -6%
